Data on one compound can be found in the supplement of paper PMC4862054.

Structures are written as SMILES.

Holding throughout (test): normalised response (% of control), CellTiter-Glo; higher = more viable cells (100 = DMSO, 0 = benzethonium chloride kill control)
Common to all, as to conditions: incubation time: 72 h
A general note: In ATP-based viability assays light output follows the ATP content of the culture.

One test deals with BT-474. The method in brief: (§1)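 Two readouts were taken after 72 h: CellTox Green fluorescence (485/520 nm) first, then CellTiter-Glo luminescence after 10 min at room temperature. Breast cancer cell lines had been seeded as 20 µl suspension into 384-well plates holding compound at 5 concentrations in 10-fold steps across a compound-specific 10,000-fold range. Each value is a normalised signal at a single concentration, with plates scaled to 0.1 % DMSO (100) and a positive kill control (0).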

Another test relates to DU-4475. The method in brief: as §1
A further test relates to MDA-MB-436. The method in brief:
as §1

The next test relates to CAL-120. The method in brief: as §1
The next test relates to SK-BR-3. The method in brief:
as §1

A further test has as its system CAL-51. The method in brief:
as §1

The next test has as its system HCC1143. The method in brief:
as §1

In the next test the test system is CAL-85-1. The method in brief:
as §1

The next test deals with MDA-MB-453. The method in brief:
as §1

A further test concerns MDA-MB-231. The method in brief: as §1
In a further test the test system is MDA-MB-468. The method in brief: as §1
In the next test the test system is HDQ-P1. The method in brief:
as §1

The subject of a further test is Hs578T. The method in brief:
as §1

The next test relates to HCC1599. The method in brief: as §1

For `CCCC(CCC)C(=O)O` [Valproic acid] (10000 nM), the normalised response with BT-474 was 102%; in the test with DU-4475, 98.2%; in the test on MDA-MB-436, 105%; with CAL-120, 111%; in the test on SK-BR-3 it was 96.1%; with CAL-51, 95.9%. Moreover, the normalised response with HCC1143 is 108%; in the test on CAL-85-1, 100%; with MDA-MB-453, 93.7%; in the test on MDA-MB-231 it was 103%; in the test with MDA-MB-468, 95.3%; with HDQ-P1, 102%. Besides, the normalised response with Hs578T is 99.3%; in the test on HCC1599 it was 87.8%.
